Results as given in patent US7094773B2, “LTA4 hydrolase inhibitors” (Institut National de la Santa et de la rescherche Medicale …, priority 1999, dated 2006).
Structures can show the parent of a compound that is named as a salt.

System: not given
Test: not given
Details: not given

In order of falling melting point:
1. Br.NC(CCCOc1ccc(Cc2ccccc2)cc1)C(=O)O (racemic)  199 °C
2. Br.NC(CCCCOc1ccc(-c2ccccc2)cc1)C(=O)O (racemic)  185 °C
3. Br.NC(CCCOc1ccc(Oc2ccccc2)cc1)C(=O)O (racemic)  162 °C
4. Br.CCCCCCOc1ccc(OCCCCC(N)C(=O)O)cc1 (racemic)  135 °C
5. Br.NC(CCCCOc1ccc(Oc2ccccc2)cc1)C(=O)O (racemic)  130 °C
6. Br.NC(CCCCCCOc1ccc(Cc2ccccc2)cc1)C(=O)O (racemic)  120 °C
7. Br.NC(CCCCCOc1ccc(Cc2ccccc2)cc1)C(=O)O (racemic)  100 °C

Biological target: T1, human recombinant LTA4 hydrolase (Homo sapiens, UniProt P09960)
T1 construct: made in house; host or cells: E. coli JM109
T1 sequence (P09960 1-611): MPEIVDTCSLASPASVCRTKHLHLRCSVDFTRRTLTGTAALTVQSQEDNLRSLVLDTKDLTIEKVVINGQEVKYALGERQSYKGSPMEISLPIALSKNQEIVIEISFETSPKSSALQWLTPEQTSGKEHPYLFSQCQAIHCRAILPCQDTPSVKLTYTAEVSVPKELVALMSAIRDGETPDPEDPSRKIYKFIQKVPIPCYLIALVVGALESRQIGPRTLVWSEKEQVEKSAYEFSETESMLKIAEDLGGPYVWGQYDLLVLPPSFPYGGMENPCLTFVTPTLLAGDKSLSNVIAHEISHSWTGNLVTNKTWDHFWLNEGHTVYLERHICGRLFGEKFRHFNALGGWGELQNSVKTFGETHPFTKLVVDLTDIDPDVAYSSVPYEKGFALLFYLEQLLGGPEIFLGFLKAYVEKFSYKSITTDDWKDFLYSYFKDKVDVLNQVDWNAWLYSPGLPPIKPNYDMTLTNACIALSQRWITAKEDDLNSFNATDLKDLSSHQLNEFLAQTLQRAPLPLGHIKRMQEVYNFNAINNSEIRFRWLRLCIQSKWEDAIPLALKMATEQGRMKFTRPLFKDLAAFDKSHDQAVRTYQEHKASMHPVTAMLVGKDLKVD
Test: Inhibition of the aminopeptidase activity of recombinant LTA4 hydrolase (fluorimetric, Ala-AMC substrate)
Assay type: biochemical
Details: in vitro
Method: The compounds were tested using human recombinant LTA4 hydrolase (Minami et al., FEBS Letters, 1988, 229: 279). The LTA4 hydrolase expressed by E. coli JM109 is purified mainly according to Minami et al., (J. Biol. Chem., 1987, 262: 13873).
The inhibition of the aminopeptidase activity of the enzyme is measured by means of a fluorimetric method in 96-well microplates. The recombinant enzyme (0.5 μg in 50 μl of 50 mM Tris-HCl pH 7.4) is preincubated for 10 minutes at 37° C. in the presence of inhibitor and of dithiothreitol (DTT, 10^−5 M). The substrate alanyl-amido-methylcoumarin (Ala-AMC, 25 μM-Tris HCl 50 mM, pH 7.4) is added and the incubation is continued for 15 minutes at 37° C. The release of AMC is measured by fluorimetry.

Compound `NC(CCCCOc1ccc(Cc2ccccc2)cc1)C(=O)O` (racemic) [compound 51, 2-(RS)-amino-6-(4-benzylphenoxy)hexanoic acid hydrobromide] has a Ki of 32 nM.
